The record followed here is ChEMBL document CHEMBL2417365, “Design, synthesis, and in vitro hMAO-B inhibitory evaluation of some 1-methyl-3,5-diphenyl-4,5-dihydro-1H-pyrazoles” (Bioorg Med Chem Lett, 2013).

Series [1] concerns the target T1, Amine oxidase [flavin-containing] B (Homo sapiens, UniProt P27338).
T1 sequence (P27338 whole entry): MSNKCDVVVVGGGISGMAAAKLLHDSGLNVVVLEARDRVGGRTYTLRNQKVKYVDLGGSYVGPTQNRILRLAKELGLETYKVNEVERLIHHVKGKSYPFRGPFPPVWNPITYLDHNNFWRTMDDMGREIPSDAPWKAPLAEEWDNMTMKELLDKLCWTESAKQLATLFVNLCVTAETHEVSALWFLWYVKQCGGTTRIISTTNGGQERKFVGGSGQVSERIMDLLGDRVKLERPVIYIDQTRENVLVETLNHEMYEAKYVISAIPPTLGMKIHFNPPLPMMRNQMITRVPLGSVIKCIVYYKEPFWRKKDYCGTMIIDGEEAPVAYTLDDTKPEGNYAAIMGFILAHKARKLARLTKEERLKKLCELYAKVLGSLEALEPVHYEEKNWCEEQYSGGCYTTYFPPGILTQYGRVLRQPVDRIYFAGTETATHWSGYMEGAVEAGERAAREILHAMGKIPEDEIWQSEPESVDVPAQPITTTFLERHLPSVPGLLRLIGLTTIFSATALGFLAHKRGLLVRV
Briefly: biochemical. The format is cell-based, BTI-TN-5B1-4.
Description: Inhibition of human recombinant microsomal MAO-B expressed in baculovirus-infected insect BTI-TN-5B1-4 cells assessed as p-tyramine conversion to H2O2 by fluorescence assay

Series [2] is filed under the species Homo sapiens. Put plainly: Selectivity index, ratio of IC50 for human MAO-A to IC50 for human MAO-B.
The target of series [3] is T2, Amine oxidase [flavin-containing] A (Homo sapiens, UniProt P21397).
T2 sequence (P21397 whole entry): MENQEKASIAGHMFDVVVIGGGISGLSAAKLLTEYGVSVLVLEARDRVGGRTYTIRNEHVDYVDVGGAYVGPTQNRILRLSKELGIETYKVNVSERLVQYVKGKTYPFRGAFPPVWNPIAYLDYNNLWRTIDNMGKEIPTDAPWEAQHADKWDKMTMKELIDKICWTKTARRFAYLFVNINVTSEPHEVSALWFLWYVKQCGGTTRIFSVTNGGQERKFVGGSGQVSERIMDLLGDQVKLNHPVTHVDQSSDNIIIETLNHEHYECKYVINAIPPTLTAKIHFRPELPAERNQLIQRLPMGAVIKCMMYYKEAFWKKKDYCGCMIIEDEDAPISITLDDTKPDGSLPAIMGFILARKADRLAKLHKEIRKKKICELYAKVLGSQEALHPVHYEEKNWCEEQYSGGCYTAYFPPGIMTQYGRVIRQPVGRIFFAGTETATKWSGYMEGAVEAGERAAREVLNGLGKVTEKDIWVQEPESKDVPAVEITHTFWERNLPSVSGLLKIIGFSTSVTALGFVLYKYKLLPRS
Put plainly: Inhibition of human recombinant microsomal MAO-A expressed in baculovirus-infected insect BTI-TN-5B1-4 cells assessed as p-tyramine conversion to H2O2 by fluorescence assay.

Series [4] deals with T2, Amine oxidase [flavin-containing] A. Put plainly: Inhibition of human recombinant microsomal MAO-A expressed in baculovirus-infected insect BTI-TN-5B1-4 cells at 100 uM assessed as p-tyramine conversion to H2O2 by fluorescence assay. Conditions: for inhibition at 100 µM: BTI-TN-5B1-4, human; for inhibition (INH): human, bti-tn-5b1-4, 100 µM; call rule not given here.
The target in series [5] is T1, Amine oxidase [flavin-containing] B. Briefly: Ratio of clorgyline IC50 to compound IC50 for human MAO-B.
The target in series [6] is Amine oxidase [flavin-containing] B (Homo sapiens) (UniProt P27338). Briefly: Ratio of moclobemide IC50 to compound IC50 for human MAO-B.
Series [7] shares this target. Briefly: Ratio of selegiline IC50 to compound IC50 for human MAO-B.
Series [8] concerns the target T1, Amine oxidase [flavin-containing] B. Briefly: Ratio of selegiline IC50 to compound IC50 for human MAO-B.
Series [9] has as its target T2, Amine oxidase [flavin-containing] A. Put plainly: Ratio of clorgyline IC50 to compound IC50 for human MAO-A.
In series [10] the target is Amine oxidase [flavin-containing] B (Homo sapiens) (UniProt P27338). Briefly: Ratio of iproniazid IC50 to compound IC50 for human MAO-B.
In series [11] the target is T1, Amine oxidase [flavin-containing] B. Put plainly: Inhibition of human recombinant microsomal MAO-B expressed in baculovirus-infected insect BTI-TN-5B1-4 cells at 100 uM assessed as p-tyramine conversion to H2O2 by fluorescence assay. Conditions: for inhibition (INH): human, bti-tn-5b1-4, 100 µM; for inhibition at 100 µM: BTI-TN-5B1-4, human.

A value given as a limit tells only on which side of the number the result lay.

Usually IC50 stands for the concentration at which inhibition is half-maximal. On to `CN1N=C(c2ccc(O)cc2O)CC1c1ccccc1Cl` (stereo unspecified), for which the half-maximal inhibitory concentration (IC50) in series [1] was 0.3 µM; in series [3] it was 1.1 µM. Further, the Ratio IC50 in [2] is 3.7.
One may read the inhibition as the drop in the measured response relative to a control, in per cent. Regarding `CN1N=C(c2ccc(O)cc2)CC1c1ccc(F)cc1` (stereo unspecified), 3.65 µM corresponded to half-maximal inhibition in [1] (IC50). Also, the inhibition at 100 µM in series [4] stood at 40%. For the same compound, in [2], the Ratio IC50 was greater than 27.
As for `CN1N=C(c2ccccc2)CC1c1ccc(F)cc1` (stereo unspecified), the IC50 was 0.14 µM in series [1] and 3 µM in series [3]. Besides, the Ratio IC50 in series [2] was determined as 21.
As for `Cc1ccc(C2CC(c3ccccc3)=NN2C)cc1` (stereo unspecified), the Ratio IC50 is no less than 2 in series [5]; “<= 2” in series [6]; “<= 2” in series [7]; no less than 2 in series [8]; 145 in series [2]; “<= 2” in [9]. For the same compound, in series [10], the “Ratio IC50” value is “<= 2”. Moreover, the IC50 came to 0.0096 µM in series [1] and 1.39 µM in [3].
As to `CN1N=C(c2ccccc2)CC1c1cccc(F)c1` (stereo unspecified), the IC50 in series [1] turned out to be 0.06 µM; in [3] it was 1.82 µM. Moreover, the Ratio IC50 in series [2] is 30.
`CN1N=C(c2ccc(O)cc2)CC1c1ccccc1F` (stereo unspecified): half-maximal inhibition in series [1] (IC50) required 3.04 µM. Further, the inhibition at 100 µM in [4] was 40%. Also, the Ratio IC50 in series [2] is greater than 33.
Turning to `Cc1ccc(C2CC(c3ccc(O)cc3)=NN2C)cc1` (stereo unspecified), the IC50 turned out to be 1.91 µM in series [1] and 9.13 µM in series [3]. The Ratio IC50 in [2] came out at 4.8.
On to `CN1N=C(c2ccc(O)cc2O)CC1c1cccc(F)c1` (stereo unspecified), for which the “inhibition (INH)” value in series [4] and in series [11] was “Not Active” in each case.
Turning to `CN1N=C(c2ccc(O)cc2)CC1c1cccc(F)c1` (stereo unspecified), the 50% inhibitory concentration (IC50) in series [1] was 3.17 µM. Also, the inhibition at 100 µM in series [4] amounted to 40%. The Ratio IC50 in series [2] was greater than 31.
On the same counts, the results for `CN1N=C(c2ccc(O)cc2O)CC1c1ccccc1F` (stereo unspecified) are 3.87 µM, 40% and greater than 26.
Regarding `CN1N=C(c2ccc(O)cc2O)CC1c1cccc(Cl)c1` (stereo unspecified), the half-maximal inhibitory concentration (IC50) in [1] amounted to 0.18 µM; in series [3], 0.42 µM. Further, the Ratio IC50 in series [2] amounted to 2.3.
The matching figures for `CN1N=C(c2ccc(O)cc2)CC1c1cccc(Cl)c1` (stereo unspecified): 2.07 µM, 18.7 µM and 9.
On the same counts, the results for `Cc1ccccc1C1CC(c2ccccc2)=NN1C` (stereo unspecified) are 0.11 µM, 3.26 µM and 30.
In the case of `CN1N=C(c2ccccc2)CC1c1ccccc1Cl` (stereo unspecified), in series [1], the half-maximal inhibitory concentration (IC50) worked out at 3.65 µM. The “inhibition (INH)” value in series [4] is given as “Not Active”. Further, the Ratio IC50 in series [2] was greater than 27.
In series [1], `CN1N=C(c2ccc(O)cc2)CC1c1ccccc1` (stereo unspecified) had an IC50 of 26.8 µM. Further, the inhibition at 100 µM in [4] stood at 40%. Moreover, in [2], the Ratio IC50 was greater than 3.7.
In the case of `CN1N=C(c2ccc(O)cc2)CC1c1ccc(Cl)cc1` (stereo unspecified), the half-inhibitory concentration (IC50) in [1] is 2.64 µM; in series [3] it was 12.7 µM. Moreover, in [2], the Ratio IC50 is 4.8.
The matching figures for `CN1N=C(c2ccc(O)cc2)CC1c1ccccc1Cl` (stereo unspecified): 10.4 µM, 11.8 µM and 1.1.
As to `Cc1ccc(C2CC(c3ccc(O)cc3O)=NN2C)cc1` (stereo unspecified), the inhibition at 100 µM in series [4] and in series [11] was 40% in each case.
On to `CN1N=C(c2ccc(O)cc2O)CC1c1ccc(Cl)cc1` (stereo unspecified), for which the half-maximal inhibitory concentration (IC50) worked out at 0.34 µM in series [1] and 1.39 µM in series [3]. The Ratio IC50 in series [2] was found to be 4.1.
The matching figures for `Cc1ccccc1C1CC(c2ccc(O)cc2)=NN1C` (stereo unspecified): 20.1 µM, 21.9 µM and 1.1.
As to `CN1N=C(c2ccc(O)cc2O)CC1c1ccc(F)cc1` (stereo unspecified), the half-inhibitory concentration (IC50) in series [3] stood at 0.81 µM.
Turning to `Cc1cccc(C2CC(c3ccc(O)cc3)=NN2C)c1` (stereo unspecified), the figures for the IC50 in series [1] and in series [3] were 5.78 µM and 16.3 µM, respectively. The Ratio IC50 in [2] came out at 2.8.
The matching figures for `Cc1ccccc1C1CC(c2ccc(O)cc2O)=NN1C` (stereo unspecified): 2.04 µM, 3.98 µM and 1.9.
Regarding `CN1N=C(c2ccc(O)cc2O)CC1c1ccccc1` (stereo unspecified), the inhibition at 100 µM in [4] and in series [11] was 40% in each case.
With `Cc1cccc(C2CC(c3ccc(O)cc3O)=NN2C)c1` (stereo unspecified), the inhibition at 100 µM in [4] and in series [11] was 40% in each case.
Take `CN1N=C(c2ccccc2)CC1c1ccccc1F` (stereo unspecified): the results for the IC50 in series [1] and in series [3] were 0.28 µM and 2.84 µM, respectively. In addition, the Ratio IC50 in series [2] is 10.
On the same counts, the results for `CN1N=C(c2ccccc2)CC1c1cccc(Cl)c1` (stereo unspecified) are 0.84 µM, 51 µM and 61.
The compound `CN1N=C(c2ccccc2)CC1c1ccc(Cl)cc1` (stereo unspecified) had an IC50 in series [1] of 3.95 µM. For the same compound, the “inhibition (INH)” value in [4] is on record as “Not Active”. For the same compound, the Ratio IC50 in [2] is greater than 25.
For `CN1N=C(c2ccccc2)CC1c1ccccc1` (stereo unspecified), the half-inhibitory concentration (IC50) in [1] is 0.12 µM; in series [3], 1.68 µM. In addition, in series [2], the Ratio IC50 was 14.
In series [1], `Cc1cccc(C2CC(c3ccccc3)=NN2C)c1` (stereo unspecified) displayed an IC50 of 0.11 µM. In series [4], the inhibition at 100 µM was determined as 40%. In series [2], the Ratio IC50 is greater than 909.
Turning to `O=C(NCCN1CCOCC1)c1ccc(Cl)cc1` [MOCLOBEMIDE], the “inhibition (INH)” value in [11] was “Not Active”.
